Structures are written as SMILES.

The test system of data set [1] is estrogen receptors. To be noted: in vitro; cited from earlier work.
The subject of data set [2] is vagina, uterus, body weight, bone mass, bone strength, hot flushes, ovulation. Conditions: ovulation (inhibition), dose-dependent; cited from earlier work.
For data set [3] the following is noted: humans; cited from earlier work.
Data set [4] is described as follows: Randomized, open-label, two-period, cross-over pharmacokinetic study, sublingual versus oral 10 mg estetrol tablet. Conditions: 10 mg estetrol sublingual vs oral; healthy female volunteers. Type of data set: in vivo, human. The protocol: A randomized, open-label, two-period, cross-over, pharmacokinetic study is conducted to compare sublingual bioavailability of 10 mg estetrol administered in one 80 mg tablet (having the same composition as the tablets described in Example 4, Formulation E) with oral availability of estetrol contained in a 83 mg tablet containing 10 mg estetrol. These tablets are administered sublingually and orally to healthy female volunteers under fasting conditions.
Ten healthy female subjects are selected on the basis of the following criteria: age of 45-65 years (inclusive), nonsmokers or past smokers (at least 6 months before dosing), body-mass index (BMI)=18.5 to 30 kg/m^2 (inclusive at the time of the screening).
At the start of the first and the second period of the study, between 07:00 am and 07:28 am, 5 subjects receive a single dose of the sublingual formulation of estetrol by administering one estetrol tablet (tablet weight 80 mg; 10 mg estetrol) and 5 subjects receive a single oral dose of the oral estetrol formulation by administering one estetrol tablet (tablet weight 83 mg; 10 mg estetrol), ingested together with 200 ml water. […]
The estetrol concentration in the collected blood samples is determined by means of HPLC/MS/MS. The concentrations of glucuronided estetrol (D-ring) in the urine samples is also determined with the help of HPLC/MS/MS.

Data set [5] concerns production of SHBG. To be noted: in vitro; cited from earlier work.
Data set [6] concerns the target T1, sex hormone binding globulin (SHBG) (Homo sapiens, UniProt P04278).
T1 sequence (P04278 30-402): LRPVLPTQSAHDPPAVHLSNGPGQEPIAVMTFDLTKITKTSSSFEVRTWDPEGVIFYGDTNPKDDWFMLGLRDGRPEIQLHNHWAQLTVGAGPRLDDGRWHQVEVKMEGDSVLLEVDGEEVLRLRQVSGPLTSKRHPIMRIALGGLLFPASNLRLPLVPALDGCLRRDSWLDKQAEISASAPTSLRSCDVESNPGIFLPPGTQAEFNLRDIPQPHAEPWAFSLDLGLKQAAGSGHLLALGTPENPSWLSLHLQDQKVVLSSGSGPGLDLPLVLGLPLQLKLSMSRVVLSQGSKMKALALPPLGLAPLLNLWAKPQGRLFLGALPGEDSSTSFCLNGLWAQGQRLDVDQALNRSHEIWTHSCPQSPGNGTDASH
To be noted: cited from earlier work.

The test system of data set [7] is human breast cancer cells. Conditions: in vitro; cited from earlier work.
Data set [8] relates to DMBA mammary tumour. To be noted: extent and dose level similar to tamoxifen and to ovariectomy; cited from earlier work.

Take `C[C@]12CC[C@@H]3c4ccc(O)cc4CC[C@H]3[C@@H]1[C@@H](O)[C@@H](O)[C@@H]2O` [estetrol, 1,3,5 (10)-estratrien-3,15α,16α, 17β-tetrol]: the “Estrogen receptor binding selectivity” value in data set [1] was “binds highly selective to the estrogen receptors with preference for the ERα form”. Besides, in data set [2], the “Estrogenic effects in rat models” value is given as “exhibited estrogenic effects”. Also, in data set [3], the Oral bioavailability entry is “high and dose-proportional”; the Terminal elimination half-life entry is reported as “about 28 hours”. In addition, the “Impact on a liver function parameter, sublingual compared with oral” value in data set [4] is “less impact on a liver function parameter”. For the same compound, in data set [5], the “Stimulation of the production of SHBG” value is reported as “does not stimulate”. Further, in data set [6], the “Binding to SHBG” value is reported as “does not bind”. In data set [7], the “Effect in the presence of 17β-estradiol” value is recorded as “anti-estrogenic effect”. Further, the Tumour development entry in data set [8] is on record as “prevented tumour development”.

(Values after US12427114B2, “Orodispersible dosage unit containing an estetrol component” (ESTETRA SRL, priority 2015, dated 2025).)
